The source of these data is patent US20230348516A1, “YKL-40 INHIBITORS AND THEIR THERAPEUTIC APPLICATIONS” (Molecure S.A., priority 2022, published 2023).

The experiment has as its target YKL-40 and asialofetuin interaction (Homo sapiens, UniProt P36222). Nature of the experiment: Orthogonal YKL-40 AlphaScreen assay using biotinylated asialofetuin (AF-biot). Type of experiment: binding.

Sequence of YKL-40 and asialofetuin interaction (P36222 22-383): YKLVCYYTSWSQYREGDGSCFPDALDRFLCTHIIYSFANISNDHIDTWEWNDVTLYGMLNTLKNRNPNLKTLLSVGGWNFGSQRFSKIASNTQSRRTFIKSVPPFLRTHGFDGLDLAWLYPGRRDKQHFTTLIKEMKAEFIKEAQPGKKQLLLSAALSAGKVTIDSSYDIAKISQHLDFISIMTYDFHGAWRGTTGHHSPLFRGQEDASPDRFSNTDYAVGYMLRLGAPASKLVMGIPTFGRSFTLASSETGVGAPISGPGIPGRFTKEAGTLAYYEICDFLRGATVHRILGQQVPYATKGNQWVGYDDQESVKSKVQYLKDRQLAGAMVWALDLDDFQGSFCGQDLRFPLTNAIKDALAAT

As to `Cc1cc(C2CCC(N3C[C@H](C(=O)O)OC[C@@H]3Cc3ccc(Cl)cc3)CC2)nn1C.O=C(O)C(F)(F)F` (single isomer, unassigned) [Example 11], the “interference with YKL-40 and asialofetuin (triantennary LacNac) interaction” value amounted to 64%. The compound `Cc1cc(C2CCC(N3C[C@H](C(=O)O)OC[C@@H]3Cc3ccc(Cl)cc3)CC2)nn1C.O=C(O)C(F)(F)F` (single isomer, unassigned) [Example 11, 2,2,2-trifluoroacetate] returned an IC50 of 20 nM.

One may read the IC50 as the concentration that gives 50% inhibition. Low values mean greater potency in that assay, high ones weaker potency in that assay.
